Several values for one entry are separate records, joined by “and”; a condition that tells them apart may be missing. Identical values can stand only once. Activity calls are given as the source filed them.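 How the source made its calls: active means compounds giving half or more protection of infected cells from virus-caused growth loss, again on retest; inactive means the rest.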
Tested on: CEM cells HIV-1 protection, formazan growth assay
Experiment: NCI AIDS Antiviral Assay
Conditions: for IC50: measured here: growth of uninfected CEM cells
Outline: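 Steps: treat uninfected and HIV-1-infected human CEM cells at five drug levels; quantify growth by soluble formazan; retest any compound reaching 50% protection; classify actives from the retest.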

SMILES	outcome	EC50 [µM]	IC50
CC(=O)OCC(OC(C)=O)C(OC(C)=O)C(OC(C)=O)C(=O)CNn1c(-c2ccccc2Cl)nc2ccc(Br)cc2c1=O (configuration not stated)	inactive		
Cc1ccc(OCC2OC(n3cnc4c(Br)nc(Br)nc43)CC2Oc2ccc(C)cc2)cc1 (configuration not stated)		> 200	2.09 µM
COC(=O)C(C)(C)C(OP1(=S)N(C)CCN1C)=C(C)C		> 155	> 155 µM
CC(=O)O[C@H]1[C@H](OC(C)=O)[C@@H](CN=[N+]=[N-])OCO[C@@H]1CN=[N+]=[N-]	inactive		
N#CCCN(CCN(CCC#N)C(=O)Nc1ccccc1)C(=O)Nc1ccccc1		> 200	> 200 µM
CCOc1ccc(N=NC2C(=O)N(C(=O)CC(=O)Nc3ccc(Cl)cc3)N=C2C)cc1 (configuration not stated)		> 200	> 200 µM
NCC(=O)NC(CCCC(NC(=O)CN)P(=O)(O)O)P(=O)(O)O (configuration not stated)	inactive		
CN(C)c1cccc2c(S(=O)O)cccc12		> 200	> 200 µM
CCOC(=O)CCC(NC(=O)c1ccc(Nc2nc3ccccc3nc2-c2cccs2)cc1)C(=O)OCC (configuration not stated)		> 200	13.5 µM
CCOC(=O)c1c(SC(=O)c2ccc(C(C)(C)C)cc2)n(-c2ccccc2)c(=S)n(-c2ccccc2)c1=O		> 200	27.5 µM
COC(=O)c1c2c(cc3c1CC1(Cc4cc5c(c(C=O)c4C1)CCC5)C3)CCC2 (configuration not stated)		> 200	20 µM
C#CCOCn1ccc(=O)[nH]c1=O		> 200	> 200 µM
O=P1(OCC(F)(F)C(F)F)Oc2ccccc2O1		> 41.7	3.24 µM
Nc1nc(=S)[nH]c(C(=O)Nc2nccs2)c1-c1ccccc1		> 21.9	> 21.9 µM
O=C1C2=C(c3ccccc31)C(c1ccccc1Cl)N1C(=O)CCSC1=N2 (configuration not stated)		> 26.3	> 26.3 µM
COc1ccc2nc3cc([N+](=O)[O-])ccc3c(NCCCN(CCO)CCO)c2c1		> 200	2.51 µM
CC1(C)C2CCC1(C)C(N=C(N)CSS(=O)(=O)O)C2 (configuration not stated)		> 200	49 µM and 30.9 µM
CC(C)C1N2CCCCC2[C@@H]2c3[nH]c4ccccc4c3CCN12 (some centres not stated)		> 81.3	> 81.3 µM
CC(O)CC(O)(C(F)(F)F)C(F)(F)F (configuration not stated)		> 200	> 200 µM
O=c1[nH]nc(Cc2ccc(Cl)cc2)n1CCO		> 200	> 200 µM
Oc1cccc2nc3cc(CN4CCOCC4)c(CN4CCOCC4)cc3nc12		> 18.2	> 18.2 µM
C=C[C@H]1[C@@H]2CCC3=CC(=O)CC[C@@H]3C2CC[C@]1(C)C(=O)O (some centres not stated)		> 200	> 200 µM

SMILES	outcome	EC50 [µM]	IC50
CC(=O)OC(C)(C)/C=C/C(=O)[C@](C)(O)[C@H]1[C@H](O)C[C@@]2(C)[C@@H]3CC=C4[C@@H](C=C(O)C(=O)C4(C)C)[C@]3(C)C(=O)C[C@]12C		> 0.2	0.00676 µM
COc1ccc(C2=Nc3ccccc3NC(=O)C2)cc1		> 37.2	> 37.2 µM
CCOC(=O)/C(Cc1cc(=O)n(C)c2ccccc12)=N\Nc1ccccc1		> 200	> 200 µM
Cc1cccc2c3c(ccc12)C(=O)OC3=O	inactive		
CCOC(=O)c1cc(NC(=O)N(CCC#N)CCN(C(=O)N[C@@H](Cc2ccccc2)C(=O)N[C@@H](CC(C)C)C(=O)NC)c2ccccc2)ccc1OC		> 200	29.5 µM
CCOC(=O)C(NC(=O)OCc1ccccc1)C(=O)O (configuration not stated)		> 200	> 200 µM
CCOC(=O)C(Cc1ccc([N+](=O)[O-])cc1)NC(=O)CC1c2ccccc2-c2ccccc21 (configuration not stated)		> 11.7	> 11.7 µM
N#C[C@H]1Nc2ccccc2[C@@H](O)C1O (some centres not stated)		> 1320	> 1320 µM
CCCCSc1nc2c(=O)[nH][nH]c(=O)c2n1Cc1ccccc1		> 200	158 µM
CCCCCCCCCCCCS(=O)(=O)O (tested in a mixture with another compound)		> 200	107 µM
Nc1ccc(C(=O)N/C(=C\c2ccc3c(c2)OCO3)c2nc3ccc4c(c3[nH]2)C(=O)c2ccccc2C4=O)cc1	inactive		
CCOC(=O)C1C2CCC1CC(=NNc1ccc([N+](=O)[O-])cc1[N+](=O)[O-])C2 (configuration not stated)		> 50.1	19.5 µM
NC(CCSSCCC(N)P(=O)(O)O)P(=O)(O)O (configuration not stated)		> 200	> 200 µM
C1CC2=C(C1)[Se]C(=C1Sc3nsnc3S1)[Se]2		> 200	195 µM
O=C1NS(=O)(=O)c2ccccc21		> 1200	> 1200 µM
N#C/C(=C\c1ccccc1)C(=O)c1ccccc1		> 95.5	> 95.5 µM
COc1cc(SSc2cc(OC)c(OC)cc2C(=O)N2CSC[C@H]2C(=O)O)c(C(=O)N2CSC[C@@H]2C(=O)O)cc1OC		> 200	> 200 µM
Cn1cc(C(=O)/C(Cl)=C(\Cl)C(=O)O)c2ccccc21	inactive		
COC(=O)C1C(=O)C(C(=O)OC)C2CCC1N2C (configuration not stated)		> 200	42.7 µM
COc1c(OC)c(OC)c(-c2cc(=O)c3c(OC)c(OC)c(OC)c(OC)c3o2)c(OC)c1OC		> 200	56.2 µM
COc1cc(C=O)c(-c2cc3c(cc2C=O)OCO3)c(OC)c1OC		> 145	51.3 µM
CCNC(=O)OCCCCC=C(c1cc(Cl)c(OC)c(C(=O)OC)c1)c1cc(Cl)c(OC)c(C(=O)OC)c1		> 200	14.5 µM

SMILES	outcome	EC50 [µM]	IC50
c1ccc(-c2cc(=[N+]3CCOCC3)c3ccccc3o2)cc1	inactive		
CO/C(=N\N=C\c1ccc(C(F)(F)F)cc1)c1ccncc1		> 117	69.2 µM
CC1N(C)C(=O)OC12CCN(CCCC(=O)c1ccc(F)cc1)CC2 (configuration not stated)		> 200	> 200 µM
O=C1C(=O)C(Br)(Br)C(Br)=C1Br	inactive		
O=C(N/C(=C\c1ccc([N+](=O)[O-])cc1)c1nc2ccccc2s1)c1ccccc1		> 32.4	> 32.4 µM
CC(C)=NOC(=O)Nc1cccc2c1OCO2		> 200	> 200 µM
COC(=O)CSSCc1ccccc1		> 200	5.25 µM
O=C(NC(Cl)(C(F)(F)F)C(F)(F)F)c1ccc(F)cc1		> 200	> 200 µM
CCCC(=O)C(C)=C(OC)OC	inactive		
O=C1C(Br)=CC2(C=C1Br)CCNc1c(O)c3c4c(c12)=NCCC=4C=N3		> 2	0.0891 µM
COc1cc(-c2cc(=O)c3c(O)c(OC)c(OC)cc3o2)ccc1O		> 11	> 11 µM
CCCCCCCN(O)CC1OC(n2ccc(=O)[nH]c2=O)C(O)C1O (configuration not stated)		> 200	141 µM
COCCOCc1nc(C#N)c(N)o1	inactive		
N#CCCN(CCC#N)c1ccc(C(Sc2ccccc2)C(NC(=O)c2cc([N+](=O)[O-])ccc2Cl)C(=O)Sc2ccccc2)cc1 (configuration not stated)		> 10.7	3.55 µM
COc1ccc(NC(=O)c2c(NC(C)=O)c(C#N)c3n2CCC3)cc1		> 200	> 200 µM
OC12c3ccccc3C1CCCCCCCCCC21OCCCO1 (configuration not stated)		> 200	> 200 µM
O=C1NCN(c2ccccc2)C12CCN(Cc1ccccc1)CC2		> 200	> 200 µM
Cc1cc(S(=O)(=O)n2ccnc2Oc2ccccc2)c(SSc2cc(Cl)c(C)cc2S(=O)(=O)n2ccnc2Oc2ccccc2)cc1Cl		129	> 200 µM
CC(CN(C)C)/C(=N\Nc1ccccc1)c1ccccc1 (configuration not stated)	inactive		
C=CCCCCOCOCCOC		> 138	> 138 µM

— PubChem BioAssay AID179 (DTP/NCI, 2004)
